Legend:
Type in all cases: cell-based
[1] = test system: E. coli YhjV knockout (HMP3406_YhjV KO); assay: Growth test of yhjV knockout strain in tryptophan; conditions: 1 mM tryptophan, M9 with 0.2% glucose, 30° C., 48 h
Experimental: This Example describes testing the influence of YhjV on the uptake of amino acids. The growth test was performed using M9 medium supplemented with 0.2% glucose and 1 mM tryptophan, as well as appropriate antibiotics (100 mg/L ampicillin or 50 mg/L kanamycin). The growth curves were monitored with Growth Profiler (Enzyscreen, Heemstede, Netherland) at 30° C. and 250 RPM for 48 h.
We first tested how YhjV transporter affects the growth of E. coli tryptophan. We followed the growth curves of E. coli wild type BW25113 (HMP0_wt), YhjV knockout (HMP3406_YhjV KO) and YhjV overexpression (HMP3405_YhjV O. E., made by transforming pHM635 into HMP0) in M9 medium containing 0.2% glucose supplemented with 1 mM tryptophan.

[2] = test system: E. coli Keio strains (single gene deleted strains); assay: Growth Profiler growth test of transporter knockout (Keio) strains in 4 g/L melatonin; conditions: 4% ethanol, M9+0.2% glucose, vs BW25113 control strain
Experimental: (§1) The E. coli Keio strains (single gene deleted strains) were inoculated into 400 μl of M9+0.2% glucose media supplemented with kanamycin (50 μg/ml) in 96 deep well-plate picking the single colonies in LB-agar plates. Then, the plate was incubated at 30° C. with 300 rpm overnight (incubated for 18-24 h). The wild type strain E. coli BW25113 was used as a control. The following day, the saturated pre-cultures were diluted 100 fold into 300 μl of M9+0.2% glucose media (and antibiotics as required) supplemented with 4.4% of ethanol or 4.4% of ethanol and 4.4 g/L of melatonin so that the resulting final concentration would be 4% of ethanol and 4 g/L of melatonin in 96 well MTP plate. In case of the RBS library of yhjV, screening was performed at 5 g/L of melatonin instead of 4 g/L. Then, the culture plates were incubated in Growth Profiler (Enzyscreen, Heemstede, Netherland) at 30° C. and 250 RPM for 48 h with constant monitoring of the growth by taking picture in every 20 minutes interval. Using the GP software (GP960Viewer version 1.0.0.4, Enzyscreen, Heemstede, Netherland), the pictures data was converted into digital OD600 nm values and the growth curves were compared.
To identify any melatonin-specific native transporters in E. coli, an E. coli knockout library of 430 strains was screened, testing cell growth in the presence of 4 g/L (or 5 g/L) melatonin using the Growth Profiler. In such a screen, improved growth parameters (especially higher growth rate and/or lower lag time) compared to wild-type strain can be expected in case an importer is knocked-out, whereas decreased growth parameters can be expected in case an exporter is knocked-out (FIG. 3).
The growth curves of the five selected transporter candidate deletion strains (target candidate knocked-out Keio strains) were accessed after running growth profiler experiments as mentioned above.

E. coli = assay: Growth of E. coli in the presence of melatonin
Experimental: FIG. 2. High-concentration of melatonin decreased cell growth of E. coli. Melatonin stock-solution was made by dissolving melatonin into 70% ethanol (ETOH). The growth medium was M9 supplemented with 0.2% glucose and 2 to 7 g/L melatonin. […] The ordinate scale reflects optical density.
as §1
In order to elucidate whether melatonin production at high titers is toxic to E. coli, we tested the growth of E. coli strain in the presence of different concentrations of melatonin. Melatonin was externally added into M9 medium supplemented with 0.2% glucose and the growth curves were monitored. […] Compared to the control, the biomass yield decreased ˜30% at 2 g/L melatonin, and further decreased about 30% at 7 g/l melatonin.

Row | SMILES | growth of YhjV knockout compared to the wild type [1] | growth of acrB deletion strain [2] | growth of argO deletion strain [2] | growth of garP deletion strain [2] | growth of lysP deletion strain [2] | growth of yhjV deletion strain [2] | biomass yield decrease compared to the control (E. coli; 2 g/L melatonin, M9 medium with 0.2% glucose, control contains 4% ETOH) | further biomass yield decrease (E. coli; 7 g/l melatonin, M9 medium with 0.2% glucose, control contains 4% ETOH) | effect on E. coli growth (E. coli; high concentrations of melatonin (2 to 7 g/L), M9 with 0.2% glucose)
1 | N[C@@H](Cc1c[nH]c2ccccc12)C(=O)O [tryptophan, L-tryptophan] | much lower biomass yield | – | – | – | – | – | – | – | –
2 | COc1ccc2[nH]cc(CCNC(C)=O)c2c1 [melatonin] | – | no growth at all | reduced growth rates | longer lag time and reduced growth rate | reduced growth rates | longer lag time and reduced growth rate | about 30% | about 30% | inhibited E. coli growth

— patent US12359176B2, “Engineered cells for production of indole-derivatives” (priority 2019, dated 2025)
